Assay results published in patent publication US20200270237A1 (priority 2017, published 2020).
Like-named read-outs stand apart in the source and are kept apart here.

Legend:
human μ-opioid receptor = human μ-opioid receptor (Homo sapiens, UniProt P35372); experiment: biochemical; assay type: binding
[1] = molecular target: Human α2δ-1 Subunit of Cav2.2 Calcium Channel (Homo sapiens, UniProt P54289); experiment: biochemical; assay type: binding
[2] = read-out: Ki (nM) alpha2delta Hum

Chain of human μ-opioid receptor (P35372 whole entry): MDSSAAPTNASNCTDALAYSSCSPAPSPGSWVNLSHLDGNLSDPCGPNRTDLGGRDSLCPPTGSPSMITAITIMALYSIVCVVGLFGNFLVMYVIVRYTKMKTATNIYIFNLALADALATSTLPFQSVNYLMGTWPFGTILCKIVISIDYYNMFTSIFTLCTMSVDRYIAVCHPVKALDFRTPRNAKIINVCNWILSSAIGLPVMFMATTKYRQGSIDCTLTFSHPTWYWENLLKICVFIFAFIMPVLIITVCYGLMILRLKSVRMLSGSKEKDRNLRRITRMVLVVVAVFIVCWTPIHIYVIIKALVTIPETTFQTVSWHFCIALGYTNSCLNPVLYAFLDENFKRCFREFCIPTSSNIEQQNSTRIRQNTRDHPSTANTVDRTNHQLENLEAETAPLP
Chain of Human α2δ-1 Subunit of Cav2.2 Calcium Channel (P54289 25-1103): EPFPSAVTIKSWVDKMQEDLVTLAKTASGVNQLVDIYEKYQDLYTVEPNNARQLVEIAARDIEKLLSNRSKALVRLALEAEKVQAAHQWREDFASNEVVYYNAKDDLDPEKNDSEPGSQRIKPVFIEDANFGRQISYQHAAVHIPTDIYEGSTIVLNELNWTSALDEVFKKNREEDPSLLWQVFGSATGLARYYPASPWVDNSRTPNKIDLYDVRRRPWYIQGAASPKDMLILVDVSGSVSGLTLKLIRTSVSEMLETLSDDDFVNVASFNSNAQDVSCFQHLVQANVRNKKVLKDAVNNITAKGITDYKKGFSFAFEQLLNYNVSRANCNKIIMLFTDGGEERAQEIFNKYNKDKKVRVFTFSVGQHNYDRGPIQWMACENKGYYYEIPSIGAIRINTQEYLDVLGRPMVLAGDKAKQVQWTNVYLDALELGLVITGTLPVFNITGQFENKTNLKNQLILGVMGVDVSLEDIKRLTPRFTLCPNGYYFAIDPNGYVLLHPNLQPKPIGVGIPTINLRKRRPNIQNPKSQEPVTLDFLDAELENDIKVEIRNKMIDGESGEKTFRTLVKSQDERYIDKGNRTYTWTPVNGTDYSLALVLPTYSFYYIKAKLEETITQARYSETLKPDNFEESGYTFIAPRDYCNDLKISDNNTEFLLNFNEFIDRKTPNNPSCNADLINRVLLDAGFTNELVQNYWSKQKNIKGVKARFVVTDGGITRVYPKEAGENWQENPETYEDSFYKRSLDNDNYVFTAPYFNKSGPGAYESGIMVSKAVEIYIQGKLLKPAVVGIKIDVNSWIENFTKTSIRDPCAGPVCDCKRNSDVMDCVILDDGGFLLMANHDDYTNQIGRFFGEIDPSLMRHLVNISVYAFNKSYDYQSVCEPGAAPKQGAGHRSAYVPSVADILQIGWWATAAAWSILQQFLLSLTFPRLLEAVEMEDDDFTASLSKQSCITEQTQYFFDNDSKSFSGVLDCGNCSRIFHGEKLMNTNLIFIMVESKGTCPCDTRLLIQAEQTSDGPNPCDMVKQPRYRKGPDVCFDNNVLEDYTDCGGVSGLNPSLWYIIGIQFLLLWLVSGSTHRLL

## CNCCC(OCc1cccc(CN2CCC(c3ccccc3)(N(C)C)CC2)c1)c1ccccc1 (centres unmarked) [Example 25]
Human μ-opioid receptor
  Ki: < 0.1 µM
[1]
  Ki: 500 to 3000 nM

## CNCC[C@@H](OCc1cccc(CN2CCC(c3ccccc3)(N(C)C)CC2)c1)c1ccccc1 [Example 26, (R)-N,N-dimethyl-1-(3-((3-(methylamino)-1-phenylpropoxy)methyl)benzyl)-4-phenylpiperidin-4-amine]
Human μ-opioid receptor
  Ki: < 0.1 µM
[1]
  Ki: 500 to 3000 nM

## CNCC[C@H](OCc1cccc(CN2CCC(c3ccccc3)(N(C)C)CC2)c1)c1ccccc1 [Example 27, (S)-N,N-dimethyl-1-(3-((3-(methylamino)-1-phenylpropoxy)methyl)benzyl)-4-phenylpiperidin-4-amine]
Human μ-opioid receptor
  Ki: < 0.1 µM
[1]
  Ki: > 3000 nM

## CC[C@@]1(N2CCN(Cc3cccc(CO[C@H](CCNC)c4ccccc4)c3)CC2)CCOC(C)(C)C1 [Example 30, (R)-3-((3-((4-((R)-4-ethyl-2,2-dimethyltetrahydro-2H-pyran-4-yl)piperazin-1-yl)methyl)benzyl)oxy)-N-methyl-3-phenylpropan-1-amine]
[1]; [2]
  Ki: > 3000 nM

## CC[C@]1(N2CCN(Cc3cccc(CO[C@H](CCNC)c4ccccc4)c3)CC2)CCOC(C)(C)C1 [Example 31, (R)-3-((3-((4-((S)-4-ethyl-2,2-dimethyltetrahydro-2H-pyran-4-yl)piperazin-1-yl)methyl)benzyl)oxy)-N-methyl-3-phenylpropan-1-amine]
[1]; [2]
  Ki: 500 to 3000 nM

## CNCCC(OCc1cccc(N2CCc3ccccc3C2=O)c1)c1cccs1 (centres unmarked) [Example 32, 2-(3-((3-(Methylamino)-1-(thiophen-2-yl)propoxy)methyl)phenyl)-3,4-dihydroisoquinolin-1(2H)-one]
Human μ-opioid receptor
  Ki: 0.1 to 0.5 µM
[1]
  Ki: 500 to 3000 nM

## CNCCC(Oc1cccc(N2CCCCC2=O)c1)c1ccccc1 (centres unmarked) [Example 33, 1-(3-(3-(Methylamino)-1-phenylpropoxy)phenyl)piperidin-2-one]
[1]; [2]
  Ki: > 3000 nM

## CNCCC(Oc1cccc(N2CCCCC2=O)c1)c1cccs1 (centres unmarked) [Example 34, 1-(3-(3-(Methylamino)-1-(thiophen-2-yl)propoxy)phenyl)piperidin-2-one]
[1]; [2]
  Ki: > 3000 nM

## CNCCC(Oc1cccc(N2CCN(C)CC2)c1)c1ccccc1 (centres unmarked) [Example 35, N-methyl-3-(3-(4-methylpiperazin-1-yl)phenoxy)-3-phenylpropan-1-amine]
[1]; [2]
  Ki: 500 to 3000 nM

## CNCCC(Oc1cccc(N2CCN(C)CC2=O)c1)c1cccs1 (centres unmarked) [Example 36, 4-Methyl-1-(3-(3-(methylamino)-1-(thiophen-2-yl)propoxy)phenyl)piperazin-2-one]
[1]; [2]
  Ki: > 3000 nM

## CNCCC(Oc1cccc(N2CCN(C)CC2)c1)c1cccs1 (centres unmarked) [Example 37, N-methyl-3-(3-(4-methylpiperazin-1-yl)phenoxy)-3-(thiophen-2-yl)propan-1-amine]
[1]; [2]
  Ki: 500 to 3000 nM

## CNCCC(OCc1cccc(N2CCCCC2=O)c1)c1ccccc1 (centres unmarked) [Example 38, 1-(3-((3-(Methylamino)-1-phenylpropoxy)methyl)phenyl)piperidin-2-one]
[1]; [2]
  Ki: 500 to 3000 nM

## CNCCC(OCc1cccc(N2CCCCC2=O)c1)c1cccs1 (centres unmarked) [Example 39, 1-(3-((3-(Methylamino)-1-(thiophen-2-yl)propoxy)methyl)phenyl)piperidin-2-one]
[1]; [2]
  Ki: 500 to 3000 nM

## CNCCC(OCc1cccc(N2CCN(C)CC2)c1)c1ccccc1 (centres unmarked) [Example 40, N-methyl-3-((3-(4-methylpiperazin-1-yl)benzyl)oxy)-3-phenylpropan-1-amine]
[1]; [2]
  Ki: 500 to 3000 nM

## CNCCC(OCc1cccc(N2CCN(C)CC2=O)c1)c1ccccc1 (centres unmarked) [Example 41, 4-Methyl-1-(3-((3-(methylamino)-1-phenylpropoxy)methyl)phenyl)piperazin-2-one]
[1]; [2]
  Ki: > 3000 nM

## CNCCC(Oc1cccc(N2CCNCC2)c1)c1cccs1 (centres unmarked) [Example 42, N-methyl-3-(3-(piperazin-1-yl)phenoxy)-3-(thiophen-2-yl)propan-1-amine]
[1]; [2]
  Ki: 500 to 3000 nM

## CNCCC(Oc1cccc(N2CCC(c3ccccc3)(N(C)C)CC2)c1)c1cccs1 (centres unmarked) [Example 43, N,N-dimethyl-1-(3-(3-(methylamino)-1-(thiophen-2-yl)propoxy)phenyl)-4-phenylpiperidin-4-amine]
[1]; Table 1, human α2δ-1 enriched membranes, 15 nM [3H]-Gabapentin, read-out: Ki (nM) alpha2delta Hum
  Ki: 500 to 3000 nM
[1]; Table 2 (dual compounds), human α2δ-1 enriched membranes, 15 nM [3H]-Gabapentin, read-out: Ki (nM) alpha2delta Hum
  Ki: 500 to 3000 nM

## CNCCC(Oc1cccc(N2C[C@@H](C)N[C@@H](C)C2)c1)c1cccs1 (stereo partly drawn) [Example 44, 3-(3-((3S,5R)-3,5-dimethylpiperazin-1-yl)phenoxy)-N-methyl-3-(thiophen-2-yl)propan-1-amine]
[1]
  Ki: 100 to 500 nM

## CNCCC(OCc1cccc(N2CCNc3ccccc32)c1)c1ccccc1 (centres unmarked) [Example 47, 3-((3-(3,4-Dihydroquinoxalin-1(2H)-yl)benzyl)oxy)-N-methyl-3-phenylpropan-1-amine]
Human μ-opioid receptor; read-out: MU Ki
  Ki: > 1 µM
[1]; [2]
  Ki: > 3000 nM

## CNCCC(OCc1cccc(N2CCC(N(C)C)CC2)c1)c1ccccc1 (centres unmarked) [Example 48, N,N-dimethyl-1-(3-((3-(methylamino)-1-phenylpropoxy)methyl)phenyl)piperidin-4-amine]
[1]; [2]
  Ki: 500 to 3000 nM

## CNCCC(OCc1ccc(N2CCC(c3ccccc3)(N(C)C)CC2)cc1)c1cccs1 (centres unmarked) [Example 49, N,N-dimethyl-1-(4-((3-(methylamino)-1-(thiophen-2-yl)propoxy)methyl)phenyl)-4-phenylpiperidin-4-amine]
[1]; [2]
  Ki: > 3000 nM

## CNCC[C@H](Oc1ccc(CN2CCc3ccccc3C2=O)cc1)c1cccs1 [Example 50, (S)-(4-(3-(methylamino)-1-(thiophen-2-yl)propoxy)benzyl)-3,4-dihydroisoquinolin-1(2H)-one]
[1]; [2]
  Ki: 500 to 3000 nM

## CNCCC(Oc1ccc(CN2CCC(c3ccccc3)(N(C)C)CC2)cc1)c1cccs1 (centres unmarked) [Example 51, N,N-dimethyl-1-(4-(3-(methylamino)-1-(thiophen-2-yl)propoxy)benzyl)-4-phenylpiperidin-4-amine]
[1]
  Ki: > 3000 nM

## CNCCC(Oc1ccc(CN2CCN(C)CC2)cc1)c1cccs1 (centres unmarked) [Example 52, N-methyl-3-(4-((4-methylpiperazin-1-yl)methyl)phenoxy)-3-(thiophen-2-yl)propan-1-amine]
[1]; [2]
  Ki: > 3000 nM

## CNCC[C@H](Oc1ccc(CN2CCn3cccc3C2=O)cc1)c1cccs1 [Example 53, (S)-2-(4-(3-(methylamino)-1-(thiophen-2-yl)propoxy)benzyl)-3,4-dihydropyrrolo[1,2-a]pyrazin-1(2H)-one]
[1]; [2]
  Ki: 500 to 3000 nM

## CNCCC(Oc1ccc(CN2CCCc3ccccc32)c(F)c1)c1cccs1 (centres unmarked) [Example 54, 3-(4-((3,4-Dihydroquinolin-1(2H)-yl)methyl)-3-fluorophenoxy)-N-methyl-3-(thiphen-2-yl)propan-1-amine]
[1]
  Ki: > 3000 nM

## CNCCC(Oc1ccc(CN2CCc3ccccc3C2)c(F)c1)c1cccs1 (centres unmarked) [Example 55, 3-(4-((3,4-Dihydroisoquinolin-2(1H)-yl)methyl)-3-fluorophenoxy)-N-methyl-3-(thiophen-2-yl)propan-1-amine]
[1]
  Ki: > 3000 nM

## CNCCC(Oc1ccc(C(=O)N2CCC(c3ccccc3)(N(C)C)CC2)cc1)c1cccs1 (centres unmarked) [Example 56, (4-(Dimethylamino)-4-phenylpiperidin-1-yl)(4-(3-(methylamino)-1-(thiophen-2-yl)propoxy)phenyl)methanone]
[1]; [2]
  Ki: > 3000 nM

## CNCCC(Oc1ccc(CCN2CCC(c3ccccc3)(N(C)C)CC2)cc1)c1cccs1 (centres unmarked) [Example 57, N,N-dimethyl-1-(4-(3-(methylamino)-1-(thiophen-2-yl)propoxy)phenethyl)-4-phenylpiperidin-4-amine]
[1]
  Ki: > 3000 nM
